Assay results taken from the NIST ThermoML archive (doi:10.1016/j.fluid.2014.07.036).
Numbers after ± are expanded uncertainties.

Assay: refractive index (other wavelength) (dimensionless); xn = mol fraction of the nth substance listed
Details: 85 kPa, Liquid, Wavelength=632.8 nm, minimum deviation angle

CCCCCCCC[n+]1ccn(C)c1.F[B-](F)(F)F [1-methyl-3-octylimidazolium tetrafluoroborate] + CCCCCCO
refractive index (289.88 K, x1 = 0.004): 1.4182 ± 0.0002 | refractive index (289.88 K, x1 = 0.354): 1.4268 ± 0.0002 | refractive index (290.62 K, x1 = 0.007): 1.418 ± 0.0002 | refractive index (290.62 K, x1 = 0.346): 1.4264 ± 0.0002 | refractive index (291.35 K, x1 = 0.01): 1.4178 ± 0.0002 | refractive index (291.35 K, x1 = 0.338): 1.426 ± 0.0002 | refractive index (292.06 K, x1 = 0.009): 1.4175 ± 0.0002 | refractive index (292.06 K, x1 = 0.325): 1.4255 ± 0.0002 | refractive index (292.78 K, x1 = 0.011): 1.4173 ± 0.0002 | refractive index (292.78 K, x1 = 0.317): 1.4251 ± 0.0002 | refractive index (293.48 K, x1 = 0.014): 1.4171 ± 0.0002 | refractive index (293.48 K, x1 = 0.31): 1.4247 ± 0.0002 | refractive index (294.37 K, x1 = 1): 1.4327 ± 0.0003 | refractive index (294.83 K, x1 = 0.018): 1.4167 ± 0.0002 | refractive index (294.83 K, x1 = 0.289): 1.4238 ± 0.0002 | refractive index (295.51 K, x1 = 0.02): 1.4165 ± 0.0002 | refractive index (295.51 K, x1 = 0.282): 1.4234 ± 0.0002 | refractive index (295.86 K, x1 = 1): 1.4323 ± 0.0003 | refractive index (296.12 K, x1 = 0.021): 1.4163 ± 0.0002 | refractive index (296.12 K, x1 = 0.269): 1.4229 ± 0.0002 | refractive index (296.61 K, x1 = 0.024): 1.4162 ± 0.0002 | refractive index (296.61 K, x1 = 0.263): 1.4226 ± 0.0002 | refractive index (297.04 K, x1 = 0.026): 1.4161 ± 0.0002 | refractive index (297.04 K, x1 = 0.252): 1.4222 ± 0.0002 | refractive index (297.21 K, x1 = 1): 1.4319 ± 0.0003 | refractive index (297.39 K, x1 = 0.027): 1.416 ± 0.0002 | refractive index (297.39 K, x1 = 0.245): 1.4219 ± 0.0002 | refractive index (297.66 K, x1 = 0.031): 1.416 ± 0.0002 | refractive index (297.66 K, x1 = 0.24): 1.4217 ± 0.0002 | refractive index (297.92 K, x1 = 0.034): 1.416 ± 0.0002 | refractive index (297.92 K, x1 = 0.236): 1.4215 ± 0.0002 | refractive index (298.17 K, x1 = 0.034): 1.4159 ± 0.0002 | refractive index (298.17 K, x1 = 0.227): 1.4212 ± 0.0002 | refractive index (298.38 K, x1 = 0.037): 1.4159 ± 0.0002 | refractive index (298.38 K, x1 = 0.222): 1.421 ± 0.0002 | refractive index (298.57 K, x1 = 0.042): 1.416 ± 0.0002 | refractive index (298.57 K, x1 = 0.221): 1.4209 ± 0.0002 | refractive index (298.73 K, x1 = 0.044): 1.416 ± 0.0002 | refractive index (298.73 K, x1 = 0.219): 1.4208 ± 0.0002 | refractive index (298.88 K, x1 = 0.046): 1.416 ± 0.0002 | refractive index (298.88 K, x1 = 0.213): 1.4206 ± 0.0002 | refractive index (298.93 K, x1 = 1): 1.4313 ± 0.0003 | refractive index (299.01 K, x1 = 0.045): 1.4159 ± 0.0003 | refractive index (299.01 K, x1 = 0.207): 1.4204 ± 0.0002 | refractive index (299.12 K, x1 = 0.049): 1.416 ± 0.0002 | refractive index (299.12 K, x1 = 0.208): 1.4204 ± 0.0002 | refractive index (299.21 K, x1 = 0.05): 1.416 ± 0.0002 | refractive index (299.21 K, x1 = 0.202): 1.4202 ± 0.0002 | refractive index (299.37 K, x1 = 0.056): 1.4161 ± 0.0002 | refractive index (299.37 K, x1 = 0.196): 1.42 ± 0.0002 | refractive index (299.44 K, x1 = 0.057): 1.4161 ± 0.0002 | refractive index (299.44 K, x1 = 0.193): 1.4199 ± 0.0002 | refractive index (299.5 K, x1 = 0.061): 1.4162 ± 0.0002 | refractive index (299.5 K, x1 = 0.194): 1.4199 ± 0.0002 | refractive index (299.55 K, x1 = 0.061): 1.4162 ± 0.0002 | refractive index (299.55 K, x1 = 0.191): 1.4198 ± 0.0002 | refractive index (299.6 K, x1 = 0.062): 1.4162 ± 0.0002 | refractive index (299.6 K, x1 = 0.188): 1.4197 ± 0.0002 | refractive index (299.66 K, x1 = 0.063): 1.4162 ± 0.0002 | refractive index (299.66 K, x1 = 0.184): 1.4196 ± 0.0002 | refractive index (299.7 K, x1 = 0.067): 1.4163 ± 0.0002 | refractive index (299.7 K, x1 = 0.181): 1.4195 ± 0.0003 | refractive index (299.74 K, x1 = 0.067): 1.4163 ± 0.0002 | refractive index (299.74 K, x1 = 0.178): 1.4194 ± 0.0003 | refractive index (299.79 K, x1 = 0.071): 1.4164 ± 0.0002 | refractive index (299.79 K, x1 = 0.175): 1.4193 ± 0.0003 | refractive index (299.83 K, x1 = 0.075): 1.4165 ± 0.0002 | refractive index (299.83 K, x1 = 0.175): 1.4193 ± 0.0003 | refractive index (299.86 K, x1 = 0.075): 1.4165 ± 0.0002 | refractive index (299.86 K, x1 = 0.172): 1.4192 ± 0.0002 | refractive index (299.9 K, x1 = 0.079): 1.4166 ± 0.0002 | refractive index (299.9 K, x1 = 0.169): 1.4191 ± 0.0002 | refractive index (299.95 K, x1 = 0.083): 1.4167 ± 0.0002 | refractive index (299.95 K, x1 = 0.165): 1.419 ± 0.0002 | refractive index (299.97 K, x1 = 0.084): 1.4167 ± 0.0002 | refractive index (299.97 K, x1 = 0.158): 1.4188 ± 0.0002 | refractive index (299.99 K, x1 = 0.087): 1.4168 ± 0.0002 | refractive index (299.99 K, x1 = 0.155): 1.4187 ± 0.0002 | refractive index (300 K, x1 = 0.091): 1.4169 ± 0.0002 | refractive index (300 K, x1 = 0.155): 1.4187 ± 0.0002 | refractive index (300.02 K, x1 = 0.091): 1.4169 ± 0.0002 | refractive index (300.02 K, x1 = 0.148): 1.4185 ± 0.0002 | refractive index (300.03 K, x1 = 0.095): 1.417 ± 0.0002 | refractive index (300.03 K, x1 = 0.148): 1.4185 ± 0.0002 | refractive index (300.04 K, x1 = 0.098): 1.4171 ± 0.0002 | refractive index (300.04 K, x1 = 0.144): 1.4184 ± 0.0002 | refractive index (300.05 K, x1 = 0.102): 1.4172 ± 0.0002 | refractive index (300.05 K, x1 = 0.141): 1.4183 ± 0.0002 | refractive index (300.06 K, x1 = 0.102): 1.4172 ± 0.0002 | refractive index (300.06 K, x1 = 0.105): 1.4173 ± 0.0002 | refractive index (300.06 K, x1 = 0.109): 1.4174 ± 0.0002 | refractive index (300.06 K, x1 = 0.134): 1.4181 ± 0.0002 | refractive index (300.06 K, x1 = 0.137): 1.4182 ± 0.0002 | refractive index (300.06 K, x1 = 0.141): 1.4183 ± 0.0002 | refractive index (300.67 K, x1 = 1): 1.4309 ± 0.0003 | refractive index (301.31 K, x1 = 0.1): 1.4166 ± 0.0002 | refractive index (302.86 K, x1 = 0.1): 1.416 ± 0.0002 | refractive index (302.95 K, x1 = 1): 1.4303 ± 0.0003 | refractive index (303.16 K, x1 = 0.2): 1.4188 ± 0.0002 | refractive index (304.31 K, x1 = 0.2): 1.4183 ± 0.0002 | refractive index (304.45 K, x1 = 0.1): 1.4155 ± 0.0002 | refractive index (304.54 K, x1 = 0.4): 1.4225 ± 0.0002 | refractive index (304.54 K, x1 = 0.497): 1.4239 ± 0.0002 | refractive index (304.6 K, x1 = 1): 1.4298 ± 0.0003 | refractive index (305 K, x1 = 0.3): 1.4202 ± 0.0002 | refractive index (305.51 K, x1 = 0.2): 1.4179 ± 0.0002 | refractive index (305.52 K, x1 = 0.6): 1.4251 ± 0.0002 | refractive index (305.52 K, x1 = 0.699): 1.4263 ± 0.0003 | refractive index (305.69 K, x1 = 0.497): 1.4236 ± 0.0002 | refractive index (305.73 K, x1 = 0.4): 1.4221 ± 0.0002 | refractive index (305.93 K, x1 = 0.3): 1.4199 ± 0.0002 | refractive index (306.12 K, x1 = 0.1): 1.4148 ± 0.0002 | refractive index (306.24 K, x1 = 1): 1.4293 ± 0.0003 | refractive index (306.66 K, x1 = 0.2): 1.4175 ± 0.0002 | refractive index (306.68 K, x1 = 0.699): 1.426 ± 0.0003 | refractive index (307.04 K, x1 = 0.6): 1.4247 ± 0.0002 | refractive index (307.07 K, x1 = 0.3): 1.4196 ± 0.0002 | refractive index (307.1 K, x1 = 0.891): 1.428 ± 0.0003 | refractive index (307.23 K, x1 = 0.4): 1.4216 ± 0.0002 | refractive index (307.73 K, x1 = 0.497): 1.4229 ± 0.0002 | refractive index (307.83 K, x1 = 0.1): 1.4142 ± 0.0002 | refractive index (307.92 K, x1 = 0.2): 1.417 ± 0.0002 | refractive index (308.25 K, x1 = 0.699): 1.4255 ± 0.0003 | refractive index (308.37 K, x1 = 0.798): 1.4267 ± 0.0003 | refractive index (308.59 K, x1 = 0.6): 1.4242 ± 0.0002 | refractive index (308.7 K, x1 = 0.3): 1.419 ± 0.0002 | refractive index (308.74 K, x1 = 0.4): 1.4211 ± 0.0002 | refractive index (308.75 K, x1 = 0.891): 1.4276 ± 0.0003 | refractive index (309.13 K, x1 = 0.497): 1.4225 ± 0.0002 | refractive index (309.18 K, x1 = 0.1): 1.4137 ± 0.0002 | refractive index (309.19 K, x1 = 0.2): 1.4165 ± 0.0002 | refractive index (309.66 K, x1 = 0.798): 1.4264 ± 0.0003 | refractive index (309.72 K, x1 = 0.699): 1.4251 ± 0.0003 | refractive index (310.02 K, x1 = 0.6): 1.4237 ± 0.0002 | refractive index (310.19 K, x1 = 0.891): 1.4272 ± 0.0003 | refractive index (310.59 K, x1 = 0.3): 1.4184 ± 0.0002 | refractive index (310.6 K, x1 = 0.4): 1.4204 ± 0.0002 | refractive index (310.63 K, x1 = 0.798): 1.4261 ± 0.0003 | refractive index (310.77 K, x1 = 0.497): 1.422 ± 0.0002 | refractive index (311.29 K, x1 = 0.699): 1.4246 ± 0.0003 | refractive index (311.31 K, x1 = 0.891): 1.4268 ± 0.0003 | refractive index (311.64 K, x1 = 0.6): 1.4233 ± 0.0002 | refractive index (312.14 K, x1 = 0.3): 1.4179 ± 0.0002 | refractive index (312.14 K, x1 = 0.4): 1.4199 ± 0.0002 | refractive index (312.15 K, x1 = 0.798): 1.4257 ± 0.0003 | refractive index (312.81 K, x1 = 0.699): 1.4242 ± 0.0003 | refractive index (312.9 K, x1 = 0.497): 1.4214 ± 0.0002 | refractive index (312.9 K, x1 = 0.6): 1.4229 ± 0.0002 | refractive index (313.38 K, x1 = 0.891): 1.4263 ± 0.0003 | refractive index (313.81 K, x1 = 0.798): 1.4253 ± 0.0003 | refractive index (315.28 K, x1 = 0.798): 1.4248 ± 0.0003 | refractive index (315.28 K, x1 = 0.891): 1.4258 ± 0.0003
